# Reference: the supplement of paper PMC11208160
# Test: recombinant UMI read abundance after kanamycin selection (control-corrected) (log10(CPM+1)); higher = more efficient recombination; extreme values may be limits of the assay; sequences stand for … in AGTGCAGAGAAAATCGGCCAGTTTTCTCTGCCTGCAGTCCGCATGCCGTGGGACCCCTTGGGTTCTAACCTGTTGCCTAGATTTATGCAGCGGACTGCCTTTCTCCCAAAGTGATAAACCGG…AGGTTGGTTTCACT; site = the 11-nt donor
# Method: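 Pooled E. coli donor-specificity screen for the IS621 bridge recombinase. Each library member carries a reprogrammed 11-nt donor and a full-length LE bridge RNA expressed in cis from the natural promoter, with a paired donor-binding loop (8-nt LDG + 4-nt RDG) and a target-binding loop fixed to T5. It is co-electroporated with a T5 target plasmid; recombinase is induced with 0.07 mM IPTG and recombinants are selected on kanamycin. UMIs are counted as CPM, averaged over two biological replicates and corrected by the unselected control. Molecule = full bridge RNA written as DNA, built from the T5 scaffold: LDG = donor specificity nt 1-8, RDG = reverse complement of nt 8-11.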
# 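Also: IS621 bridge recombinase in Escherichia coli cells against a fixed T5 target plasmid.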
row,Sequence,recombinant UMI read abundance (log10)
1,AATGGAACATGGACCGGTTTTCCCGGTAATCCGTATTTGCT (site AATGAAACTAG),0.482
2,AATGGAACATGGACCGGTTTTCCCGGTAATCCGTATTTGCT (site AATGCAACTAG),1.05
3,AATGGAACATGGACCGGTTTTCCCGGTAATCCGTATTTGCT (site AATGGAACTAG),2.12
4,AATGGAACATGGACCGGTTTTCCCGGTAATCCGTATTTGCT (site AATGTAACTAG),1.78
5,AATGGATCATGGACCGGTTTTCCCGGTAATCCGTATTTGAA (site AATGGATCTTT),2.07
6,AATGTACCATGGACCGGTTTTCCCGGTAATCCGTATTTGCG (site AATGTACCTCG),0.0178
7,AATGTCACATGGACCGGTTTTCCCGGTAATCCGTATTTGCT (site AATGTAACTAG),0.799
8,AATGTCACATGGACCGGTTTTCCCGGTAATCCGTATTTGCT (site AATGTCACTAG),2.41
9,AATGTCACATGGACCGGTTTTCCCGGTAATCCGTATTTGCT (site AATGTGACTAG),0.0645
10,AATGTCACATGGACCGGTTTTCCCGGTAATCCGTATTTGCT (site AATGTTACTAG),0.647
11,AATGTCTCATGGACCGGTTTTCCCGGTAATCCGTATTTGAC (site AATGTATCTGT),1.32
12,AATGTCTCATGGACCGGTTTTCCCGGTAATCCGTATTTGAC (site AATGTCTCTGT),2.21
13,AATGTCTCATGGACCGGTTTTCCCGGTAATCCGTATTTGAC (site AATGTGTCTGT),0
14,AATGTCTCATGGACCGGTTTTCCCGGTAATCCGTATTTGAC (site AATGTTTCTGT),0
15,AATGTGACATGGACCGGTTTTCCCGGTAATCCGTATTTGAC (site AATGTGACTGT),2.69
16,AATGTGACATGGACCGGTTTTCCCGGTAATCCGTATTTGAC (site AATGTGCCTGT),0
17,AATGTGACATGGACCGGTTTTCCCGGTAATCCGTATTTGAC (site AATGTGGCTGT),1.01
18,AATGTGACATGGACCGGTTTTCCCGGTAATCCGTATTTGAC (site AATGTGTCTGT),0
19,AATGTGGCATGGACCGGTTTTCCCGGTAATCCGTATTTGAC (site AATGTGACTGT),1.16
20,AATGTGGCATGGACCGGTTTTCCCGGTAATCCGTATTTGAC (site AATGTGCCTGT),0.00397
21,AATGTGGCATGGACCGGTTTTCCCGGTAATCCGTATTTGAC (site AATGTGGCTGT),1.81
22,AATGTGGCATGGACCGGTTTTCCCGGTAATCCGTATTTGAC (site AATGTGTCTGT),0.451

row,Sequence,recombinant UMI read abundance (log10)
1,AATGTGTCATGGACCGGTTTTCCCGGTAATCCGTATTTGGC (site AATGTGTCTGA),0
2,AATGTGTCATGGACCGGTTTTCCCGGTAATCCGTATTTGGC (site AATGTGTCTGC),2.67
3,AATGTGTCATGGACCGGTTTTCCCGGTAATCCGTATTTGGC (site AATGTGTCTGG),0.957
4,AATGTGTCATGGACCGGTTTTCCCGGTAATCCGTATTTGGC (site AATGTGTCTGT),1.99
5,AATGTTTCATGGACCGGTTTTCCCGGTAATCCGTATTTGAC (site AATGTATCTGT),1.73
6,AATGTTTCATGGACCGGTTTTCCCGGTAATCCGTATTTGAC (site AATGTCTCTGT),0
7,AATGTTTCATGGACCGGTTTTCCCGGTAATCCGTATTTGAC (site AATGTGTCTGT),0
8,AATGTTTCATGGACCGGTTTTCCCGGTAATCCGTATTTGAC (site AATGTTTCTGT),0
9,AATTAAACATGGACCGGTTTTCCCGGTAATCCGTATTTGTA (site AATTAAACTTA),0.643
10,AATTAAACATGGACCGGTTTTCCCGGTAATCCGTATTTGTT (site AATTAAACTAA),0.00778
11,AATTAATCATGGACCGGTTTTCCCGGTAATCCGTATTTGAT (site AATTAATCTAT),1.47
12,AATTAGGCATGGACCGGTTTTCCCGGTAATCCGTATTTGGG (site AATTAGGCTCC),0.0811
13,AATTATACATGGACCGGTTTTCCCGGTAATCCGTATTTGGA (site AATTATACTTC),0.828
14,AATTATACATGGACCGGTTTTCCCGGTAATCCGTATTTGGA (site AATTATCCTTC),0.0125
15,AATTATACATGGACCGGTTTTCCCGGTAATCCGTATTTGGA (site AATTATGCTTC),0.476
16,AATTATACATGGACCGGTTTTCCCGGTAATCCGTATTTGGA (site AATTATTCTTC),0.335
17,AATTATGCATGGACCGGTTTTCCCGGTAATCCGTATTTGAA (site AATTATGCTTA),0.0142
18,AATTATGCATGGACCGGTTTTCCCGGTAATCCGTATTTGAA (site AATTATGCTTC),0.0246
19,AATTATGCATGGACCGGTTTTCCCGGTAATCCGTATTTGAA (site AATTATGCTTG),0
20,AATTATGCATGGACCGGTTTTCCCGGTAATCCGTATTTGAA (site AATTATGCTTT),0.313
21,AATTATGCATGGACCGGTTTTCCCGGTAATCCGTATTTGGG (site AATTATGCTAC),0.00898
22,AATTATGCATGGACCGGTTTTCCCGGTAATCCGTATTTGGG (site AATTATGCTCC),0.388

row,Sequence,recombinant UMI read abundance (log10)
1,AATTATGCATGGACCGGTTTTCCCGGTAATCCGTATTTGGG (site AATTATGCTGC),0
2,AATTATGCATGGACCGGTTTTCCCGGTAATCCGTATTTGGG (site AATTATGCTTC),0.0224
3,AATTATGCATGGACCGGTTTTCCCGGTAATCCGTATTTGTA (site AATTATGCTTA),1.02
4,AATTATGCATGGACCGGTTTTCCCGGTAATCCGTATTTGTA (site AATTATGCTTC),0.0111
5,AATTATGCATGGACCGGTTTTCCCGGTAATCCGTATTTGTA (site AATTATGCTTG),0.00449
6,AATTATGCATGGACCGGTTTTCCCGGTAATCCGTATTTGTA (site AATTATGCTTT),0.0175
7,AATTGGGCATGGACCGGTTTTCCCGGTAATCCGTATTTGAT (site AATTGGGCTAT),0.68
8,AATTTGGCATGGACCGGTTTTCCCGGTAATCCGTATTTGTG (site AATTTGGCTCA),0.122
9,AATTTGGCATGGACCGGTTTTCCCGGTAATCCGTATTTGTG (site CATTTGGCTCA),0.00721
10,AATTTGGCATGGACCGGTTTTCCCGGTAATCCGTATTTGTG (site GATTTGGCTCA),0.011
11,AATTTGGCATGGACCGGTTTTCCCGGTAATCCGTATTTGTG (site TATTTGGCTCA),0.187
12,AATTTGTCATGGACCGGTTTTCCCGGTAATCCGTATTTGAT (site AATTTGTCTAT),0.517
13,ACAAGGACATGGACCGGTTTTCCCGGTAATCCGTATTTGTT (site ACAAGGACTAA),2.32
14,ACAAGTCCATGGACCGGTTTTCCCGGTAATCCGTATTTGTC (site ACAAGTCCTGA),0
15,ACACAGCCATGGACCGGTTTTCCCGGTAATCCGTATTTGTC (site ACACAGCCTGA),0
16,ACACATCCATGGACCGGTTTTCCCGGTAATCCGTATTTGAC (site AAACATCCTGT),0
17,ACACATCCATGGACCGGTTTTCCCGGTAATCCGTATTTGAC (site ACAAATCCTGT),0
18,ACACATCCATGGACCGGTTTTCCCGGTAATCCGTATTTGAC (site ACACAACCTGT),0
19,ACACATCCATGGACCGGTTTTCCCGGTAATCCGTATTTGAC (site ACACACCCTGT),0.501
20,ACACATCCATGGACCGGTTTTCCCGGTAATCCGTATTTGAC (site ACACAGCCTGT),0.424
21,ACACATCCATGGACCGGTTTTCCCGGTAATCCGTATTTGAC (site ACACATACTGT),0.457
